Counter-ions that a name gives are not always drawn.
Legend:
[1] = target: T1, full length G2019 human LRRK2 (Homo sapiens, UniProt Q5S007, R50H); assay: Full length G2019 human LRRK2 Inhibition Mass Spectrometry assay; assay type: biochemical; conditions: 25 nM LRRK2 enzyme, 25 uM LRRKtide, 2 mM ATP; RapidFire mass spectrometry; read-out: pIC50 in the full length G2019 human LRRK2 Inhibition Mass Spectrometry assay (converted)
T1 construct: made in house; host or cells: HEK293 6E cells transduced with BacMam virus (virus generated in Sf9 cells)
Text: a. Full Length G2019 Human LRRK2 Inhibition Mass Spectrometry Assay
This assay for Leucine Rich Repeat Kinase 2 (LRRK2) inhibition is based on the direct measurement of the peptide ‘LRRKtide’ (LRRKtide: RLGRDKYKT*LRQIRQ and “*” refers to the site of phosphorylation.) and phosphorylated ‘LRRKtide’ using a high throughput RapidFire mass spectrometry assay. Inhibitors are compounds that reduce the conversion of LRRKtide to phospho-LRRKtide.
Human G2019 LRRK2 Plasmid Preparation
Primers used for PCR cloning: • pHTBV-F:SEQ ID No: 1 • LRRK2 wt-F1:SEQ ID No: 2 • LRRK2 wt-R1: SEQ ID No: 3 • LRRK2 wt-F2: SEQ ID No: 4 • LRRK2 wt-R2: SEQ ID No: 5 • LRRK2 wt-F3:SEQ ID No: 6 • pHTBV-R: SEQ ID No: 7 pHTBV1-N-Flag-hu LRRK2 was generated by PCR amplifying the full length LRRK2 sequence with N terminal Flag tag from pcDNA3.1(+)_Human_LRRK2 (NCBI Reference Sequence: NP_940980.3) with the primers described above, and cloned into pHTBV1mcs3 vector between BamHI and KpnI sites.
The G2019 full length Flag-LRRK2 coding sequence is SEQ ID No: 8.
The translated amino acid sequence for human G2019 full length N terminal flag tagged LRRK2 protein is SEQ ID No: 9.
Protein Expression & Purification a) Expression of Flag Tagged Full Length G2019 Human LRRK2
HEK293 6E cells were incubated in a 37° C. incubator with a humidified atmosphere of 5% CO2 on an orbital shaker rotating at 110 rpm. On the day of transduction, the cell viability was higher than 98% and the cell density was in the range of 1×10^6˜1.5×10^6 cells/ml. HEK293 6E cells were centrifuged at 1,000 rpm for 10 min, and then the cells were resuspended in fresh Freestyle 293 expression medium (Invitrogen: 12338) with 0.1% F-68(Invitrogen: 24040-032) but without antibiotics (G418) at density of 1×10^6 cells/ml. BacMam virus with Flag-hu LRRK2 (genotypically normal) gene was centrifuged at 40,000 g for 2 hours, then resuspended in fresh Freestyle 293 expression medium. The resuspended virus was added into the cells in at MOI of 10. The cells were incubated in a 37° C. incubator with a humidified atmosphere of 5% CO2 in air on an orbital shaker rotating at 110 rpm. Cultures were harvested at approximately 48 hours post-transduction by centrifugation at 4,000 rpm for 20 min and pellets were frozen for purification. […]
b) Purification of Flag Tagged Full Length G2019 Human LRRK2
The suspended cells were lysed by sonication on ice for 30 min (2 secs on/4 sec off, 20% amplitude), and centrifuged at 10,000 rpm for 30 minutes at 4° C. The supernatant was incubated with 1 mL per litre of cell culture of anti-Flag magnetic beads (Sigma-Aldrich: M8823) at 4° C. for 3 hours, then the beads were washed by 5 mL (5 column volume) binding buffer (50 mM Tris pH7.5@ 4 C, 500 mM NaCl, 0.5 mM EDTA, 0.1% TritonX-100, 10% glycerol, freshly add 2 mM DTT) for three times. The Flag tagged LRRK2 proteins were eluted by Elution buffer (50 mM Tris pH7.5@ 4 C, 500 mM NaCl, 0.5 mM EDTA, 0.1% TritonX-100, 10% glycerol, freshly add 2 mM DTT, 250 ug/ml Flag peptide (Sigma-Aldrich:F3290)) at 4° C. for 2 hours. Flag peptide was removed by Zeba Spin Desalting Columns, 7K MWCO (Thermo-Fisher: 89893) and the buffer of eluted LRRK2 proteins was exchanged into Storage Buffer (50 mM Tris pH7.5@4 C, 150 mM NaCl, 0.5 mM EDTA, 0.02% Triton X-100, 2 mM DTT and 50% Glycerol) using Amicon Ultra Centrifugal Filter Units (100 kD) (Merck: UFC910096). Fractions containing LRRK2 proteins were pooled, aliquoted and stored at −80° C. Protein concentration was determined by Bradford protein assay, and protein purity was analyzed by NuPAG Novex 4-12% Bis-Tris Protein Gels (Invitrogen: NP0322BOX).
Assay Protocol • 1) A 10 mM test compound was dissolved in 100% DMSO and serially diluted 1 in 4. 100 nL of this dilution series was then added to a 384 well, v bottom polypropylene plate, excluding columns 6 and 18. 100 nL of DMSO was added to columns 6 and 18 as controls wells. […]

[2] = target: T2, LRRK2 Ser935 phosphorylation in SH-SY5Y cells over-expressing recombinant full length LRRK2 (Homo sapiens, UniProt Q5S007); assay: Recombinant cellular LRRK2 AlphaScreen assay; assay type: cell-based; conditions: human neuroblastoma SH-SY5Y cells, BacMam full length LRRK2, 60 minutes with compound, read-out: pIC50 in the recombinant cellular LRRK2 AlphaScreen assay (converted)
T2 construct: A BacMam virus expressing full length recombinant LRRK2 was purchased from Invitrogen; host or cells: SH-SY5Y human neuroblastoma cells transduced with BacMam LRRK2 virus
Procedure, shortened: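 SH-SY5Y cells transduced with BacMam full-length human LRRK2 (MOI 50) for 24 h, then treated with compound (top final 10 μM) for 60 min at 37° C. Lysate pSer935 LRRK2 quantified by AlphaScreen using anti-pS935 and total-LRRK2 antibodies. Values from sigmoidal dose-response fit.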

T1 sequence (Q5S007 with tags, fused parts or gaps R50H): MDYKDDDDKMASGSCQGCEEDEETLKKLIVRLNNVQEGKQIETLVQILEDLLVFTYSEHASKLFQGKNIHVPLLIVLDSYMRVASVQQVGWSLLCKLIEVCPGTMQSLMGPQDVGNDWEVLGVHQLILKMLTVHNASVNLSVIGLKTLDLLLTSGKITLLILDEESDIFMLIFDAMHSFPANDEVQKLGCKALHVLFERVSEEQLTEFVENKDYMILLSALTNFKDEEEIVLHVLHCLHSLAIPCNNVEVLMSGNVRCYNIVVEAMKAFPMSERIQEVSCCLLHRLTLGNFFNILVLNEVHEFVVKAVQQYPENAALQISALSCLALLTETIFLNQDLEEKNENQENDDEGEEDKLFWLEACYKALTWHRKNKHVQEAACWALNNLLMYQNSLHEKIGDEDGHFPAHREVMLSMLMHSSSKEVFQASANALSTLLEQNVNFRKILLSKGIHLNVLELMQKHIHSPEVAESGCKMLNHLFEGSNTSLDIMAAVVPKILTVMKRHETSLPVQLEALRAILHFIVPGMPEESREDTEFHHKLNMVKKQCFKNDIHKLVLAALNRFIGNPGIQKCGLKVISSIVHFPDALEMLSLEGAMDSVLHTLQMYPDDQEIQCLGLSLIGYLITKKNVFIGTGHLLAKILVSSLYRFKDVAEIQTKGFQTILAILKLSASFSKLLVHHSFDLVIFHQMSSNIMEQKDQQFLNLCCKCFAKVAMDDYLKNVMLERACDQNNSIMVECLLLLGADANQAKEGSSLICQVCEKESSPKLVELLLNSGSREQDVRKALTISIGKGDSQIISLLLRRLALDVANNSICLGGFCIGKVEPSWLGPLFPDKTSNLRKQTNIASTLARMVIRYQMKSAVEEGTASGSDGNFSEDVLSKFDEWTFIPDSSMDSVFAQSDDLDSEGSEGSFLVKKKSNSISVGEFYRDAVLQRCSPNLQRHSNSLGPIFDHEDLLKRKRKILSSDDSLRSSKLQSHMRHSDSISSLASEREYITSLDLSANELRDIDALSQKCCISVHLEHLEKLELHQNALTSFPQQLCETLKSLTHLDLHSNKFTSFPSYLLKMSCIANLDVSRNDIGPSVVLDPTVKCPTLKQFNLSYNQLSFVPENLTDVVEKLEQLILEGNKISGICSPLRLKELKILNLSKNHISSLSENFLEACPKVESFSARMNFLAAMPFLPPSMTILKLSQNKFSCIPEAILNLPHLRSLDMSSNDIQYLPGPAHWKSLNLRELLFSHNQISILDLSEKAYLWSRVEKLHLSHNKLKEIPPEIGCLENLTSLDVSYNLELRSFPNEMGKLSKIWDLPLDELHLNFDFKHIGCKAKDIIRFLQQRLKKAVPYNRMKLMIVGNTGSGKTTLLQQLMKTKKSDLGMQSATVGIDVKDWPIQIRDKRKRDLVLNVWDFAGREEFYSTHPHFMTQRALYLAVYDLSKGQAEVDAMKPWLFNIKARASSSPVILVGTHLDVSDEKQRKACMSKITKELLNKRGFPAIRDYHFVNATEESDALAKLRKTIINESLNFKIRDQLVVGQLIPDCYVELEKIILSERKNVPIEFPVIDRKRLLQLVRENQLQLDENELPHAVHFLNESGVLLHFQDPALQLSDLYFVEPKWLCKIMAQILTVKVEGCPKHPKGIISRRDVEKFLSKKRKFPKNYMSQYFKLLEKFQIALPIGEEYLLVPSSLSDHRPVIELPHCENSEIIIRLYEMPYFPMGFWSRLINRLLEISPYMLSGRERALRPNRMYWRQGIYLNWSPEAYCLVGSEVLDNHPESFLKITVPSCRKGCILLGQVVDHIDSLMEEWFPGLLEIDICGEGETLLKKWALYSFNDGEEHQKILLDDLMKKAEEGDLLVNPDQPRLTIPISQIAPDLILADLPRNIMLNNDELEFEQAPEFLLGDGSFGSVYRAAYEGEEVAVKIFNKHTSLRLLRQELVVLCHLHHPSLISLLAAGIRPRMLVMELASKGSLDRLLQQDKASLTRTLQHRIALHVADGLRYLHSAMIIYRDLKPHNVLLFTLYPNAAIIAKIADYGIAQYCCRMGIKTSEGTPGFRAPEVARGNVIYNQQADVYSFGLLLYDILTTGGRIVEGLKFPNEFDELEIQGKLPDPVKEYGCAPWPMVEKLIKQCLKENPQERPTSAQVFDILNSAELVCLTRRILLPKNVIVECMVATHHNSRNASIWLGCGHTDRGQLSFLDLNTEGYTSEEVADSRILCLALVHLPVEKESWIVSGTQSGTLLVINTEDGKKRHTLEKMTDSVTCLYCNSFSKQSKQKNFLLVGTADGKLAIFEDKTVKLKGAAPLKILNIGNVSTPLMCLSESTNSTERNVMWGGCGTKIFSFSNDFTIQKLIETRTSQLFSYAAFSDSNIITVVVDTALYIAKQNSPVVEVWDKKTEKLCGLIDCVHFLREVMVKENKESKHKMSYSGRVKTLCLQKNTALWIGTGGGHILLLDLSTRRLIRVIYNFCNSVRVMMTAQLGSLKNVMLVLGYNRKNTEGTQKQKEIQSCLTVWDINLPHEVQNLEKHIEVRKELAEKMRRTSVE
T2 sequence (Q5S007 whole entry): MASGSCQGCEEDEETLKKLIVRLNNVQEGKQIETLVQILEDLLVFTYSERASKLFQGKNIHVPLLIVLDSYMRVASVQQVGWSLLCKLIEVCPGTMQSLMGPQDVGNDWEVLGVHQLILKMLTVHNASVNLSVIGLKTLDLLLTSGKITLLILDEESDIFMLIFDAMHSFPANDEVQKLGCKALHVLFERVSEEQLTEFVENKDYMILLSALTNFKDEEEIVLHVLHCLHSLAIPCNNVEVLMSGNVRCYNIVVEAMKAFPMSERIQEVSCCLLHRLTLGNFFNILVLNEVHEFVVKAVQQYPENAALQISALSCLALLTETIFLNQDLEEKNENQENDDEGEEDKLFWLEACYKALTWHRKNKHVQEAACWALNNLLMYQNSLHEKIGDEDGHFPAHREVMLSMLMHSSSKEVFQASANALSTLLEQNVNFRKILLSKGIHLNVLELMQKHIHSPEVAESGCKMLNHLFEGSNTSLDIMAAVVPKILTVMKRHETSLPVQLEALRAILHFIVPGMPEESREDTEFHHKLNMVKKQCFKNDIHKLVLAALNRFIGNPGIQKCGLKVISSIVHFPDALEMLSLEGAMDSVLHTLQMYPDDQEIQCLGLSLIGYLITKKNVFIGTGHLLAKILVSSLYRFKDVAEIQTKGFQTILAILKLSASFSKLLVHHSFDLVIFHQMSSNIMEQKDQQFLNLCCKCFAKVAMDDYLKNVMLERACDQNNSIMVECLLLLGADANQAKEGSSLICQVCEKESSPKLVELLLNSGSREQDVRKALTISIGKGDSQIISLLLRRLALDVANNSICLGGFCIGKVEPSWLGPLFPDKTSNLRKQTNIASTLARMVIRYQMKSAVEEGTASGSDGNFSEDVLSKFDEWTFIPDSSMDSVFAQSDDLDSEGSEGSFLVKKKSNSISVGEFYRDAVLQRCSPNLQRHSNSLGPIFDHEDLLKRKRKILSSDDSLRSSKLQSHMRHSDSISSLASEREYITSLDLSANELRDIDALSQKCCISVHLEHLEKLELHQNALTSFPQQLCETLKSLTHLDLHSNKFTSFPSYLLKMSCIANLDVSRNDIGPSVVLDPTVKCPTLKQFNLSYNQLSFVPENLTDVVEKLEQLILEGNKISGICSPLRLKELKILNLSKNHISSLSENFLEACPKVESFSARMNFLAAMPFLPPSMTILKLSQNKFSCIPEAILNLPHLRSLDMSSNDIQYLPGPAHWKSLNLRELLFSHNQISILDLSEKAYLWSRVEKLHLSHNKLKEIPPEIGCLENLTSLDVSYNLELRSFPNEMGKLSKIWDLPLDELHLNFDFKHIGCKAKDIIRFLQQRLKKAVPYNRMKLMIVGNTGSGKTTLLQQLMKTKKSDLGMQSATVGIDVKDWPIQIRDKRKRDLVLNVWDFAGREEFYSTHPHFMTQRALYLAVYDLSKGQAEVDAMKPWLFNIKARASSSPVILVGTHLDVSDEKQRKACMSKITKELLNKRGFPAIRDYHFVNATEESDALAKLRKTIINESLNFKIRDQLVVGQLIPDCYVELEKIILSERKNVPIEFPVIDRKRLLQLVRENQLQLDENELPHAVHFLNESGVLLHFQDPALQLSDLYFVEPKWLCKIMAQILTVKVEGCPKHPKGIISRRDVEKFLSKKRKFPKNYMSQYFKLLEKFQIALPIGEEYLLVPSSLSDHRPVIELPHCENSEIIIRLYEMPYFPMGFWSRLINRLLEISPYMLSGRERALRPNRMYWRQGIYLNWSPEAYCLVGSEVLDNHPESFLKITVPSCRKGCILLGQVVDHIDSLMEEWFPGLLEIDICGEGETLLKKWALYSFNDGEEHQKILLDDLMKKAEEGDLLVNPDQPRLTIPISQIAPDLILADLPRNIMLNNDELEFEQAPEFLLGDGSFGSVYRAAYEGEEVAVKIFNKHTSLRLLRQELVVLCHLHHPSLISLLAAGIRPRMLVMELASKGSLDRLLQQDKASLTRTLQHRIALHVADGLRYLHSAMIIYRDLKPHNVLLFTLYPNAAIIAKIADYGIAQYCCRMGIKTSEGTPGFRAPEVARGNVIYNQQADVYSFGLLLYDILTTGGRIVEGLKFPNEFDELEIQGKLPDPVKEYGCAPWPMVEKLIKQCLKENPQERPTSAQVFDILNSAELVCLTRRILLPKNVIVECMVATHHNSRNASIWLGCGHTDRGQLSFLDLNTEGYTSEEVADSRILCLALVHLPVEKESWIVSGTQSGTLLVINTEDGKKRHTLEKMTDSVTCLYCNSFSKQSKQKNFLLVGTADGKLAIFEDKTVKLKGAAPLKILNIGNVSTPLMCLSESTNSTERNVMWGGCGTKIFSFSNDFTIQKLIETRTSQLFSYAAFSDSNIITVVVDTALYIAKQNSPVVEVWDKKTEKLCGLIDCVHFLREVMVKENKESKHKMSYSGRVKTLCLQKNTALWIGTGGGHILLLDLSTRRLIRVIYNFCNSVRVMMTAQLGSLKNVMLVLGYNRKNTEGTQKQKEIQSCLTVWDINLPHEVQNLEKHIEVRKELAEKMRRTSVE

Structure (SMILES) | IC50 [1] [µM] | IC50 [2] [µM]
COc1nc(N2CC3(CO)CC2CO3)cc(-n2ncc3cc(C)c(C4CCN(C5COC5)CC4)cc32)n1 (stereo not shown) [Example E167, (5-(2-methoxy-6-(5-methyl-6-(1-(oxetan-3-yl)piperidin-4-yl)-1H-indazol-1-yl)pyrim-idin-4-yl)-2-oxa-5-azabicyclo[2.2.1]heptan-1-yl)methanol] | ≤ 0.01 | ≤ 0.01
COc1nc(N2C[C@H]3C[C@@H]2CO3)cc(-n2ncc3cc(C)c(C4CCN(CCC(=O)O)CC4)cc32)n1 [Example E164, 3-(4-(1-(6-((1R,4R)-2-oxa-5-azabicyclo[2.2.1]heptan-5-yl)-2-methoxypyrimidin-4-yl)-5-methyl-1H-indazol-6-yl)piperidin-1-yl)propanoic Acid] | ≤ 0.1 | ≤ 1
Cc1nc(N2CC3OCC2C3O)cc(-n2ncc3cc(C)c(C4CCN([C@H]5CCOC5)CC4)cc32)n1 (single isomer, unassigned) [Example E176, TFA Salt] | ≤ 0.1 | ≤ 1
Cc1nc(N2C[C@H]3C[C@@H]2CO3)cc(-n2ncc3cc(C)c(C4CCN(CCC(=O)O)CC4)cc32)n1 [Example E162, 3-(4-(1-(6-((1R,4R)-2-oxa-5-azabicyclo[2.2.1]heptan-5-yl)-2-methylpyrimidin-4-yl)-5-methyl-1H-indazol-6-yl)piperidin-1-yl)propanoic Acid] | ≤ 0.1 | ≤ 1
Cc1nc(N2C[C@]3(CO)C[C@H]2CO3)cc(-n2ncc3cc(C)c(C4CCN([C@H]5CCOC5)CC4)cc32)n1 [Example E143, ((1S,4S)-5-(2-methyl-6-(5-methyl-6-(1-((S)-tetrahydrofuran-3-yl)piperidin-4-yl)-1H-indazol-1-yl)pyrimidin-4-yl)-2-oxa-5-azabicyclo[2.2.1]heptan-1-yl)methanol] | ≤ 0.1 | ≤ 1
COc1nc(N2C[C@H]3C[C@@H]2CO3)cc(-n2ncc3cc(C)c(C4CCN(CCS(C)(=O)=O)CC4)cc32)n1 [Example E174, (1R,4R)-5-(2-methoxy-6-(5-methyl-6-(1-(2-(methylsulfonyl)ethyl)piperidin-4-yl)-1H-indazol-1-yl)pyrimidin-4-yl)-2-oxa-5-azabicyclo[2.2.1]heptane] | ≤ 0.1 | ≤ 0.01
COc1nc(N2C[C@@H]3C[C@H]2CO3)cc(-n2ncc3cc(C)c(C4CCN(CCC(=O)O)CC4F)cc32)n1 (single isomer, unassigned) [Example E160] | ≤ 0.1 | ≤ 0.01
COc1nc(N2C[C@@]3(CO)C[C@@H]2CO3)cc(-n2ncc3cc(C)c(C4CCOCC4)cc32)n1 [Example E178, ((1R,4R)-5-(2-methoxy-6-(5-methyl-6-(tetrahydro-2H-pyran-4-yl)-1H-indazol-1-yl)pyrimidin-4-yl)-2-oxa-5-azabicyclo[2.2.1]heptan-1-yl)methanol] | ≤ 0.01 | ≤ 0.01
COc1nc(N2C[C@H]3C[C@@H]2CO3)cc(-n2ncc3cc(C)c(C4C5CN([C@H]6CCOC6)CC54)cc32)n1 (stereo partly drawn) [Example E175, (1R,4R)-5-(2-methoxy-6-(5-methyl-6-(3-((S)-tetrahydrofuran-3-yl)-3-azabicyclo[3.1.0]hexan-6-yl)-1H-indazol-1-yl)pyrimidin-4-yl)-2-oxa-5-azabicyclo[2.2.1]heptane] | ≤ 0.1 | ≤ 1
COc1nc(N2C[C@H]3C[C@@H]2CO3)cc(-n2ncc3cc(C)c(C4CCN(CCC(=O)O)CC4F)cc32)n1 (single isomer, unassigned) [Example E158] | ≤ 0.1 | ≤ 0.01
Cc1nc(N2C[C@H]3C[C@@H]2CO3)cc(-n2ncc3cc(C)c(C4CCN(CCC(=O)O)CC4F)cc32)n1 (single isomer, unassigned) [Example E154] | ≤ 0.1 | –
Cc1nc(N2C[C@H]3C[C@@H]2CO3)cc(-n2ncc3cc(C)c(C4CCN(C5CCOC5)CC4F)cc32)n1 (single isomer, unassigned) [Example E148] | ≤ 0.1 | –
